In general, IC50 refers to the concentration that inhibits the measured activity by half.

Structures can show the parent of a compound that is named as a salt. Where two headings read alike, the source gives them in different places.

The values that follow come from patent US11827628B2, “Compositions and methods for inhibition of the JAK pathway” (Rigel Pharmaceuticals, Inc., priority 2005, dated 2023).

For this assay, the system named is IL-4 stimulated expression of CD23 in human Ramos B cells (JAK-1 and JAK-3). Description: Assay for Ramos B-Cell Line Stimulated with IL-4 (CD23 upregulation, FACS). The assay is classed as cell-based. The following applies: read-out: IC50, Example 41. The source says: One means of assaying for such inhibition is detection of the effect of the 2,4-substituted pyrimidinediamine compounds on the upregulation of downstream gene products. In the Ramos/IL4 assay, B-cells are stimulated with the cytokine Interleukin-4 (IL-4) leading to the activation of the JAK/Stat pathway through phosphorylation of the JAK family kinases, JAK1 and JAK3, which in turn phosphorylate and activate the transcription factor Stat-6. […] To study the effect of inhibitors (e.g., the 2,4-substituted pyrimindinediamine compounds described herein) on the JAK1 and JAK3 kinases, human Ramos B cells are stimulated with human IL-4. Twenty to 24 hours post stimulation, cells are stained for upregulation of CD23 and analyzed using flow cytometry (FACS). […] An exemplary assay of this type is described in greater detail in Example 41
B-cells stimulated with cytokine Interleukin-4 (IL-4) activate the JAK/Stat pathway through phosphorylation of the JAK family kinases, JAK-1 and JAK-3, which in turn phosphorylate and activate the transcription factor Stat-6. […] To study the effect of inhibitors on the JAK family kinases, human Ramos B cells are stimulated with human IL-4.
The Ramos B-cell line was acquired from ATCC (ATCC Catalog No. CRL-1596). The cells were cultured in RPMI 1640 (Cellgro, MediaTech, Inc., Herndon, VA, Cat No. 10-040-CM) with 10% fetal bovine serum (FBS), heat inactivated (JRH Biosciences, Inc, Lenexa, Kansas, Cat No. 12106-500M) according to ATCC propagation protocol. Cells were maintained at a density of 3.5×10^5. The day before the experiment, Ramos B-cells were diluted to 3.5×10^5 cells/mL to ensure that they were in a logarithmic growth phase.
Cells were spun down and suspended in RPMI with 5% serum. 5×10^4 cells were used per point in a 96-well tissue culture plate. Cells were pre-incubated with compound or DMSO (Sigma-Aldrich, St. Louis, MO, Cat No. D2650) vehicle control for 1 hour in a 37° C. incubator. Cells were then stimulated with IL-4 (Peprotech Inc., Rocky Hill, NJ, Cat No. 200-04) for a final concentration of 50 units/mL for 20-24 hours. Cells were then spun down and stained with anti-CD23-PE(BD Pharmingen, San Diego, CA, Cat No. 555711) and analyzed by FACS. Detection was performed using a BD LSR I System Flow Cytometer, purchased from Becton Dickinson Biosciences of San Jose, California The IC50 calculated based on the results of this assay are provided in TABLE XII.

[1] abbreviates: Ramos B-cell line stimulated with IL-4, CD23 expression by FACS.
The mark [2] stands for this setting: Ramos B cells stimulated with IL-4, CD23 expression by FACS.
[3] abbreviates: Homo sapiens, Ramos, Ramos B-cell line stimulated with IL-4, CD23 expression by FACS.
The mark [4] stands for this setting: Ramos B-cell line stimulated with IL-4, CD23 expression by FACS, sodium salt.

As for “5-Fluoro-N4-(4-[3-methyl-1,2,4-oxadiazol-5-yl]methyleneoxyphenyl)-N2-(5-piperidinesulfonylphenyl)-2,4-pyrimidinediamine [Compound I-272]”, under setting [1], the IC50 worked out at 0.788 µM. As to `COc1ccc(CN2C(=O)C(C)Oc3ccc(Nc4nc(Nc5cccc(S(N)(=O)=O)c5)ncc4F)cc32)cc1` (racemic) [Compound V-5, Racemic N2-(3-Aminosulphonylphenyl)-5-fluoro-N4-[2-methyl-3-oxo-4-(4-methoxybenzyl)-benz[1,4]oxazin-6-yl]-2,4-pyrimidinediamine], the IC50 under setting [2] came to 0.696 µM. Take `COc1ccc(CN2C(=O)C(C)Sc3ccc(Nc4nc(Nc5ccc(C)c(S(N)(=O)=O)c5)ncc4F)cc32)cc1` (racemic) [Compound V-9, (R/S)-N2-(3-Aminosulphonyl-4-methylphenyl)-5-fluoro-N4-[2-methyl-3-oxo-4-(4-methoxybenzyl)-benzo[1,4]thiazin-6-yl]-2,4-pyrimidinediamine]: the IC50 (Homo sapiens, Ramos, Ramos B cells stimulated with IL-4, CD23 expression by FACS) was 1.11 µM. As for `Cc1ccc(Nc2ncc(F)c(NC3CNCCC3C)n2)cc1S(N)(=O)=O` (racemic) [VII-4, Racemic N2-(3-aminosulfonyl-4-methylphenyl)-5-fluoro-N4-(4-methylpiperidin-3-yl)-2,4-pyrimidinediamine], the IC50 under setting [2] was determined as 2.49 µM. Still for that read-out and setting: for `Cc1ccc(Nc2ncc(F)c(NC3CN(C(=O)CC#N)CCC3C)n2)cc1S(N)(=O)=O` (racemic) [VII-5, Racemic N2-(3-aminosulfonyl-4-methylphenyl)-N4-(1-cyanomethylenecarbonyl-4-methylpiperidin-3-yl)-5-fluoro-2,4-pyrimidinediamine] the value was 4.13 µM.

Consider `COc1cc(Nc2nc(Nc3ccc(C)c(S(N)(=O)=O)c3)ncc2F)cc(OCC#N)c1OC` [Compound I-2, N2-(3-Aminosulphonyl-4-methylphenyl)-N4-(3-cyanomethoxy-4,5-dimethoxyphenyl)-5-fluoro-2,4-pyrimidinediamine], for which the IC50 under setting [3] stood at 0.532 µM. Regarding `CCC(=O)NS(=O)(=O)c1cc(Nc2ncc(F)c(Nc3ccc(OCC#N)cc3)n2)ccc1C` [Compound I-31, N4-(4-Cyanomethyleneoxy)phenyl-5-fluoro-N2-(4-methyl-3-propionylaminosulfonyl)phenyl-2,4-pyrimidinediamine sodium salt], the IC50 under setting [4] came to 4.63 µM.

In the case of `CC(=O)NS(=O)(=O)c1cc(Nc2ncc(F)c(Nc3ccc(OCC#N)cc3)n2)ccc1C` [Compound I-36, N2-(3-Acetylaminosulfonyl-4-methyl)phenyl-N4-(4-cyanomethyleneoxy)phenyl-5-fluoro-2,4-pyrimidinediamine], under setting [1], the IC50 was determined as 8.8 µM. Turning to `CC(=O)NS(=O)(=O)c1cc(Nc2ncc(F)c(Nc3ccc(OCC#N)cc3)n2)ccc1C` [Compound I-38, N2-(3-Acetylaminosulfonyl-4-methyl)phenyl-N4-(4-cyanomethyleneoxy)phenyl-5-fluoro-2,4-pyrimidinediamine sodium salt], under setting [4], the IC50 was found to be 6.44 µM. For `N#CCOc1ccc(Nc2nc(Nc3cccc(S(N)(=O)=O)c3)ncc2F)cc1Cl` [Compound I-42, N2-(3-Aminosulfonylphenyl)-N4-(3-chloro-4-cyanomethoxyphenyl)-5-fluoro-2,4-pyrimidinediamine], the IC50 under setting [3] turned out to be 0.0241 µM. The same measure, in the same setting: for `CCC(=O)NS(=O)(=O)c1cc(Nc2ncc(F)c(Nc3ccc(OCC#N)c(F)c3)n2)ccc1C` [Compound I-48, N4-(4-Cyanomethoxy-3-fluorophenyl)-5-fluoro-N2-(4-methyl-3-propionylaminosulfonylphenyl)-2,4-pyrimidinediamine] the value was 1.4 µM. As for `COc1cc(Nc2nc(Nc3cccc(S(N)(=O)=O)c3)ncc2F)ccc1NC(=O)CC#N` [Compound I-84, N2-(3-Aminosulfonylphenyl)-5-fluoroN4-[3-methoxy-4-(N-cyanoacetyl)aminophneyl]-2,4-pyrimidinediamine], under setting [1], the IC50 came out at 1.4 µM.

In the case of `COc1cc(Nc2nc(Nc3ccc(C)c(S(N)(=O)=O)c3)ncc2F)ccc1NC(=O)CC#N` [Compound I-85, N2-(3-Aminosulfonyl-4-methylphenyl)-5-fluoroN4-[3-methoxy-4-(N-cyanoacetyl)aminophneyl]-2,4-pyrimidinediamine], the IC50 under setting [1] is 0.791 µM.

As to `CN(C(=O)CC#N)c1ccc(Nc2nc(Nc3cccc(S(N)(=O)=O)c3)ncc2F)cc1` [Compound I-86, N2-(3-Aminosulfonylphenyl)-N4-[4-(N-cyanoacetyl-N-methyl)aminophneyl]-5-fluoro-2,4-pyrimidinediamine], the IC50 under setting [1] was found to be 0.916 µM.

In the case of `Cc1ccc(Nc2ncc(F)c(Nc3ccc(N(C)C(=O)CC#N)cc3)n2)cc1S(N)(=O)=O` [Compound I-87, N2-(3-Aminosulfonyl-4-methylphenyl)-N4-[4-(N-cyanoacetyl-N-methyl)aminophneyl]-5-fluoro-2,4-pyrimidinediamine], the IC50 under setting [1] came out at 1.04 µM. Same read-out and setting: for `NC(=O)COc1cccc(Nc2nc(Nc3cccc(S(N)(=O)=O)c3)ncc2F)c1` [Compound I-88, N4-(3-Aminocarbonylmethoxy)phenyl-N2-(3-aminosulfonyl)phenyl-5-fluoro-2,4-pyrimidinediamine] the value was 1.08 µM; for `CN1CCN(S(=O)(=O)c2cccc(Nc3ncc(F)c(Nc4cccc(OCC(N)=O)c4)n3)c2)CC1` [Compound I-89, N4-(3-Aminocarbonylmethoxy)phenyl-5-fluoro-N2-[3-(4-methylpiperazin-1-yl)sulfonyl]phenyl-2,4-pyrimidinediamine], 5.5 µM; for `NC(=O)COc1cccc(Nc2nc(Nc3ccc(S(N)(=O)=O)cc3)ncc2F)c1` [Compound I-91, N4-(3-Aminocarbonylmethoxy)phenyl-N2-(4-aminosulfonyl)phenyl-5-fluoro-2,4-pyrimidinediamine], 2.03 µM. With `NC(=O)COc1ccc(Nc2nc(Nc3ccc(S(N)(=O)=O)cc3)ncc2F)cc1F` [Compound I-100, N4-(4-Aminocarbonylmethoxy-3-fluorophenyl)-N2-(4-aminosulfonylphenyl)-5-fluoro-2,4-pyrimidinediamine], under setting [3], the IC50 was found to be 0.38 µM. On to `COc1cc(Nc2nc(Nc3ccc(S(N)(=O)=O)cc3)ncc2F)ccc1OCC(N)=O` [Compound I-103, N4-(4-Aminocarbonylmethoxy-3-methoxyphenyl)-N2-(4-aminosulfonylphenyl)-5-fluoro-2,4-pyrimidinediamine], for which the IC50 under setting [3] came out at 1.25 µM. On the same count and under the same terms, next, `COc1cc(Nc2nc(Nc3cccc(S(N)(=O)=O)c3)ncc2F)ccc1OCC(N)=O` [Compound I-104, N4-(4-Aminocarbonylmethoxy-3-methoxyphenyl)-N2-(3-aminosulfonylphenyl)-5-fluoro-2,4-pyrimidinediamine]: 1.43 µM. Regarding `COc1cc(Nc2nc(Nc3ccc(C)c(S(N)(=O)=O)c3)ncc2F)ccc1OCC(N)=O` [Compound I-105, N4-(4-Aminocarbonylmethoxy-3-methoxyphenyl)-N2-(3-aminosulfonyl-4-methylphenyl)-5-fluoro-2,4-pyrimidinediamine], under setting [3], the IC50 came to 1.17 µM. On to `Cc1ccc(Nc2ncc(F)c(Nc3ccc(OCC(N)=O)c(CO)c3)n2)cc1S(N)(=O)=O` [Compound I-106, N4-(4-Aminocarbonylmethoxy-3-hydroxymethylphenyl)-N2-(3-aminosulfonyl-4-methylphenyl)-5-fluoro-2,4-pyrimidinediamine], for which, under setting [3], the IC50 was found to be 2.95 µM.
